Measured values: patent US8192717B2, “Composition for diagnosing amyloid-related diseases” (Nagasaki University, priority 2004, dated 2012)

Test: Radioactivity distribution in mouse body after intravenous administration of radioiodine labeled forms
Details: mouse, intravenous administration, mean (SD) of 3 to 5 mice
Protocol: Thereafter, 100 μl (0.5 to 1 μCi) of each labeled form was intravenously administered to each group consisting of three to five 5-week-old ddY male mice (25 to 30 g). 2, 10, 30, and 60 minutes after the intravenous administration, such mice were decapitated, and blood was collected. Thereafter, organs were excised, and the weight and radioactivity thereof were then measured.

Row | SMILES | Distribution of radioactivity, Blood (2 min after administration) | Distribution of radioactivity, Blood (10 min after administration) | Distribution of radioactivity, Blood (30 min after administration) | Distribution of radioactivity, Blood (60 min after administration) | Distribution of radioactivity, Brain (2 min after administration) | Distribution of radioactivity, Brain (10 min after administration) | Distribution of radioactivity, Brain (30 min after administration) | Distribution of radioactivity, Brain (60 min after administration) | Distribution of radioactivity, Heart (2 min after administration) | Distribution of radioactivity, Heart (10 min after administration) | Distribution of radioactivity, Heart (30 min after administration) | Distribution of radioactivity, Heart (60 min after administration) | Distribution of radioactivity, Intestine (2 min after administration) | Distribution of radioactivity, Intestine (10 min after administration) | Distribution of radioactivity, Intestine (30 min after administration) | Distribution of radioactivity, Intestine (60 min after administration) | Distribution of radioactivity, Kidney (2 min after administration) | Distribution of radioactivity, Kidney (10 min after administration) | Distribution of radioactivity, Kidney (30 min after administration) | Distribution of radioactivity, Kidney (60 min after administration) | further results
1 | CNc1ccc(-c2cc(=O)c3cc([125I])ccc3o2)cc1 [[125I]Compound 10] | 1.89 (0.28) % ID/g | 1.39 (0.10) % ID/g | 1.34 (0.07) % ID/g | 1.50 (0.09) % ID/g | 4.12 (0.15) % ID/g | 3.68 (0.18) % ID/g | 1.84 (0.12) % ID/g | 1.19 (0.04) % ID/g | 4.87 (0.66) % ID/g | 2.66 (0.12) % ID/g | 1.67 (0.14) % ID/g | 1.28 (0.12) % ID/g | 3.10 (0.61) % ID/g | 7.91 (1.05) % ID/g | 12.84 (1.18) % ID/g | 21.48 (3.17) % ID/g | 8.13 (1.28) % ID/g | 5.21 (0.44) % ID/g | 3.85 (0.33) % ID/g | 3.05 (0.25) % ID/g | Distribution of radioactivity, Liver (2 min after administration): 16.28 (0.90) % ID/g; Distribution of radioactivity, Liver (10 min after administration): 25.28 (0.31) % ID/g; Distribution of radioactivity, Liver (30 min after administration): 18.61 (1.81) % ID/g; Distribution of radioactivity, Liver (60 min after administration): 15.14 (0.89) % ID/g; Distribution of radioactivity, Spleen (2 min after administration): 2.57 (1.54) % ID/g; Distribution of radioactivity, Spleen (10 min after administration): 2.31 (0.01) % ID/g; Distribution of radioactivity, Spleen (30 min after administration): 1.76 (0.23) % ID/g; Distribution of radioactivity, Spleen (60 min after administration): 1.52 (0.29) % ID/g
2 | CN(C)c1ccc(-c2cc(=O)c3cc([125I])ccc3o2)cc1 [[125I]Compound 11] | 1.87 (0.18) % ID/g | 1.07 (0.08) % ID/g | 1.20 (0.15) % ID/g | 1.15 (0.16) % ID/g | 3.22 (0.15) % ID/g | 3.61 (0.60) % ID/g | 1.89 (0.21) % ID/g | 0.99 (0.10) % ID/g | 5.63 (0.80) % ID/g | 2.47 (0.14) % ID/g | 1.69 (0.06) % ID/g | 1.07 (0.17) % ID/g | 2.24 (0.24) % ID/g | 6.56 (0.83) % ID/g | 12.97 (1.15) % ID/g | 18.64 (2.05) % ID/g | 8.33 (1.47) % ID/g | 4.31 (0.28) % ID/g | 3.40 (0.31) % ID/g | 2.32 (0.45) % ID/g | Distribution of radioactivity, Liver (2 min after administration): 15.41 (0.98) % ID/g; Distribution of radioactivity, Liver (10 min after administration): 21.85 (2.14) % ID/g; Distribution of radioactivity, Liver (30 min after administration): 15.71 (0.96) % ID/g; Distribution of radioactivity, Liver (60 min after administration): 12.40 (2.38) % ID/g; Distribution of radioactivity, Spleen (2 min after administration): 2.72 (0.20) % ID/g; Distribution of radioactivity, Spleen (10 min after administration): 1.92 (0.33) % ID/g; Distribution of radioactivity, Spleen (30 min after administration): 1.58 (0.31) % ID/g; Distribution of radioactivity, Spleen (60 min after administration): 1.18 (0.17) % ID/g
3 | COc1ccc(-c2cc(=O)c3cc([125I])ccc3o2)cc1 [[125I]Compound 19] | 1.87 (0.21) % ID/g | 1.19 (0.17) % ID/g | 0.40 (0.01) % ID/g | 0.23 (0.09) % ID/g | 4.00 (0.18) % ID/g | 2.36 (0.33) % ID/g | 0.51 (0.07) % ID/g | 0.17 (0.05) % ID/g | 4.98 (0.41) % ID/g | 2.25 (0.40) % ID/g | 0.84 (0.14) % ID/g | 0.47 (0.22) % ID/g | 3.52 (0.29) % ID/g | 14.39 (0.80) % ID/g | 22.51 (1.11) % ID/g | 30.05 (3.61) % ID/g | 7.99 (1.08) % ID/g | 6.30 (1.02) % ID/g | 4.51 (1.59) % ID/g | 1.46 (1.12) % ID/g | Distribution of radioactivity, Liver (2 min after administration): 8.96 (1.48) % ID/g; Distribution of radioactivity, Liver (10 min after administration): 9.01 (0.97) % ID/g; Distribution of radioactivity, Liver (30 min after administration): 3.75 (0.47) % ID/g; Distribution of radioactivity, Liver (60 min after administration): 1.88 (0.61) % ID/g; Distribution of radioactivity, Spleen (2 min after administration): 2.70 (0.08) % ID/g; Distribution of radioactivity, Spleen (10 min after administration): 1.38 (0.37) % ID/g; Distribution of radioactivity, Spleen (30 min after administration): 0.55 (0.30) % ID/g; Distribution of radioactivity, Spleen (60 min after administration): 3.67 (5.89) % ID/g
